Experimental data from US6563014B2, “Self-contained system for sustained viral replication” (Albert Einstein College of Medicine of Yeshiva University, priority 1999, dated 2003).

Test system: HIV-1
Test: Effect of protease inhibitor treatment on plasma HIV RNA levels in transgenic mice
Format: in vivo
Source text: (iv) Quantitation of plasma HIV RNA levels: HIV RNA in the mouse plasma was quantitated by using the Roche AMPLICOR HIV-1 MONITOR™ kits (Roche Diagnostic Systems, Branchburg, N.J.) which can measure virion associated HIV-1 RNA in plasma at concentrations as low as 400 RNA copies/ml as described (Pettoello-Mantovani, M., et al., J. Infect. Dis.1 77:337-346, 1998). After plasma was isolated from the peripheral blood of the JR-CSF TG mice, an internal HIV quantitation standard (QS), a synthetic RNA molecule with primer binding sites identical to the HIV target and an internal probe sequence specific to the QS RNA molecule, was added to 200 μl of each plasma sample. RNA was then extracted from the plasma samples with a Lysis Reagent containing guanidine thiocyanate, precipitated with isopropanol, resuspended in reaction buffer and a 142 base pair sequence in the HIV gag gene was amplified by reverse transcription and PCR using rtth pol and biotinylated primers SK431 and SK462. In order to prevent PCR product contamination, dUTP was incorporated during the PCR reaction and then all of the samples were treated with AmpErase prior to PCR to eliminate carryover of any dUTP-containing PCR product. The biotinylated HIV and QS amplicons were quantitated by detection in separate wells of a microwell plate coated with HIV-specific and QS-specific oligonucleotide probes, respectively, using avidin-horseradish peroxidase conjugate and a calorimetric reaction for horseradish peroxidase. The HIV and QS amplicons were measured in a dynamic range from 400 to 750,000 copies/ml by performing 5-fold serial dilutions of the amplicons in the HIV-specific and QS-specific wells of the microplate (rows A to F and G to H, respectively). The HIV RNA copy number was then calculated from the known input copy number of the QS RNA, the optical densities at 450 nm of the HIV-well and the QS-well that fell within a defined range, and the dilution factors associated with the selected wells.
First, the mean plasma viral levels in the hu-CD4/CCR5/JRCSF TG mice are higher that in the JR-CSF TG mice. […]

[1] = hu-CD4/CCR5/JRCSF TG mice, FIG. 14

CC(C)c1nc(CN(C)C(=O)N[C@H](C(=O)N[C@@H](Cc2ccccc2)C[C@H](O)[C@H](Cc2ccccc2)NC(=O)OCc2cncs2)C(C)C)cs1 [protease inhibitor, ritonavir]
plasma viremia after treatment with a protease inhibitor (JR-CSF TG mice): did not decrease and actually went up | plasma HIV RNA levels after the protease inhibitor was stopped [1]: went back up | plasma HIV RNA levels after treatment with the protease inhibitor [1]: markedly decreased
